# Measurements as given in patent US6831079B1, “Vasopressin agonist formulation and process” (American Cyanamid Company, priority 1999, dated 2004).
# Values joined by “and” are separate entries in the source; they are usually repeats but may differ in a detail not shown here. Identical values can stand only once.
# How the values were obtained:
# Vasopressin V2 = Vasopressin V2 (Rattus norvegicus, UniProt Q00788); test: Vasopressin V2 agonist effects in normal conscious water-loaded rats; type: in vivo; parameters: from tissue; host or cells: whole living Sprague-Dawley rat; the receptor is the animal's own (renal, by own knowledge); conditions: Sprague-Dawley (CD) rats, 10 mg/kg oral; for Osmolality (% Increase): change in osmolality as percent of control; for Urine Volume (% decrease): vs. control, urine collected four hours
# Text: Vasopressin V2 Agonist Effects of Test Compounds in Normal Conscious Water-loaded Rats
# Male or female normotensive Sprague-Dawley rats (Charles River Laboratories, Inc., Kingston, N.Y.) of 350-500 g body weight were supplied with standard rodent diet (Purina Rodent Lab. Chow 5001) and water ad libitum. On the day of test, rats were placed individually into metabolic cages equipped with devices to separate the feces from the urine and containers for collection of urine. […] The vehicle used was 20% dimethylsulfoxide (DMSO) in 2.5% preboiled corn starch. Thirty minutes after dosing the test compound, rats were gavaged with water at 30 ml/kg into the stomach using a feeding needle. During the test, rats were not provided with water or food. Urine was collected for four hours after dosing of the test compound. At the end of four hours, urine volume was measured. Urinary osmolality was determined using a Fiske One-Ten Osmometer (Fiske Associates, Norwood, Mass., 02062) or an Advanced CRYOMATIC Osmometer, Model 3C.2 (Advanced Instruments, Norwood, Mass.). Determinations of Na^+, K^+ and Cl^− ion were carried out using ion specific electrodes in a Beckman SYNCHRON EL-ISE Electrolyte System analyzer. The urinary osmolality should increase proportionally. In the screening test, two rats were used for each compound. If the difference in the urine volume of the two rats was greater than 50%, a third rat was used.
# Sequence of Vasopressin V2 (Q00788 whole entry): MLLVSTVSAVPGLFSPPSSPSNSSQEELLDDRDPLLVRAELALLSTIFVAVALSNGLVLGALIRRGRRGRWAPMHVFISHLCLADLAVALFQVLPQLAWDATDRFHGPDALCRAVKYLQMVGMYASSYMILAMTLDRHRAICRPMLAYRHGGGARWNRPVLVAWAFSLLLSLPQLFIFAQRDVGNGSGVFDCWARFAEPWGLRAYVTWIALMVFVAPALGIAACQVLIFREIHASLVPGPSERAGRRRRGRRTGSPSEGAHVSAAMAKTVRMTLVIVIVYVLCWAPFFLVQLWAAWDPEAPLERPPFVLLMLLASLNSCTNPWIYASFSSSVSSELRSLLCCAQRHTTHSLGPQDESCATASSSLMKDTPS
Molecule,melting point,Osmolality (% Increase) (Vasopressin V2) [%],Urine Volume (% decrease) (Vasopressin V2) [%]
"Cc1ccn(-c2ccc(C(=O)N3Cc4cccn4Cc4ccccc43)c(Cl)c2)n1 (single isomer, unassigned) [Example 9A]",137 to 138 °C and 141 to 143 °C,325,70
"Cc1ccn(-c2ccc(C(=O)N3Cc4ccc(C)n4Cc4ccccc43)c(Cl)c2)n1 [Example 18, [2-Chloro-4-(3-methylpyrazol-1-yl)-phenyl]-(3-methyl-5H,11H-pyrrolo[2,1-c][1,4]benzodiazepin-10-yl)-methanone]",178 to 180 °C,214,52
"O=C(c1ccc(-c2ccn(C(=O)c3ccccc3-c3ccccc3)n2)cc1)N1Cc2cccn2Cc2ccccc21 [Example 40, {4-[1-(Biphenyl-2-carbonyl)-1H-pyrazol-3-yl]-phenyl}-(5H,11H-pyrrolo[2,1-c][1,4]benzodiazepin-10-yl)-methanone]",,183,46
"O=C(c1ccc(-c2ccn(C(=O)c3ccccc3-c3ccc(C(F)(F)F)cc3)n2)cc1)N1Cc2cccn2Cc2ccccc21 [Example 41, {4-[1-(4′-Trifluoromethyl-biphenyl-2-carbonyl)-1H-pyrazol-3-yl]-phenyl}-(5H,11H-pyrrolo[2,1-c][1,4]benzodiazepin-10-yl)-methanone]",,240,69
"O=C(c1ccc(-c2ncn[nH]2)cc1)N1Cc2cccn2Cc2ccccc21 [Example 48, (5H,11H-Pyrrolo[2,1-c][1,4]benzodiazepin-10-yl)-[4-(2H-[1,2,4]triazol-3-yl)-phenyl]-methanone]",225 to 227 °C,,
"Cc1n[nH]c(-c2ccc(C(=O)N3Cc4cccn4Cc4ccccc43)cc2)n1 [Example 50, [4-(5-Methyl-2H-[1,2,4]triazol-3-yl)-phenyl]-(5H,11H-pyrrolo[2,1-c][1,4]-benzodiazepin-10-yl)-methanone]",,223,53
"O=C(c1ccc(-n2cccn2)cc1)N1Cc2cccn2Cc2ccccc21 [Example 58, [4-(Pyrazol-1-yl)-phenyl]-(5H,11H-pyrrolo[2,1-c][1,4]benzodiazepin-10-yl)-methanone]",,324,49
"Cc1ccn(-c2ccc(C(=O)N3Cc4cccn4Cc4ccccc43)cc2)n1 [Example 59, [4-(3-Methyl-pyrazol-1-yl)-phenyl]-(5H,11H-pyrrolo[2,1-c][1,4]-benzodiazepin-10-yl)-methanone]",,607,80
"Cc1cc(C)n(-c2ccc(C(=O)N3Cc4cccn4Cc4ccccc43)cc2)n1 [Example 61, [4-(3,5-Dimethyl-pyrazol-1-yl)-phenyl]-(5H,11H-pyrrolo[2,1-c][1,4]-benzodiazepin-10-yl)-methanone]",,245,59
"O=C(c1ccc(-n2ccnc2)cc1)N1Cc2cccn2Cc2ccccc21 [Example 63, [4-(Imidazol-1-yl)-phenyl]-(5H,11H-pyrrolo[2,1-c][1,4]benzodiazepin-10-yl)-methanone]",171 to 172 °C,,
"N#Cc1ccc(C(=O)N2Cc3cccn3Cc3ccccc32)c(Cl)c1 [Example 77, 3-Chloro-4-(5H,11H-pyrrolo[2,1-c][1,4]benzodiazepine-10-carbonyl)-benzonitrile]",,90,13
"Cc1n[nH]c(-c2ccc(C(=O)N3Cc4cccn4Cc4ccccc43)c(Cl)c2)n1 [Example 81, [2-Choro-4-(5-methyl-2H-[1,2,4]triazol-3-yl)phenyl]-(5H,11H-pyrrolo[2,1-c][1,4]benzodiazepine-10-carbonyl)-methanone]",,490,82
"Cc1nc(-c2ccc(C(=O)N3Cc4cccn4Cc4ccccc43)c(Cl)c2)n(C)n1 [Example 85, 4-[(2,5-Dimethyl-2H-[1,2,4]triazol-3-yl)-2-chloro-phenyl]-(5H,11H-pyrrolo[2,1-c][1,4]benzodiazepin-10-carbonyl)-methanone]",,436,76
Cc1ccn(-c2ccc(C(=O)N3Cc4cccn4Cc4ccccc43)c(Br)c2)n1 [Example 90],,413,61
"O=C(c1ccc(F)cc1F)N1Cc2cccn2Cc2ccccc21 [Example 91, (2,4-Difluoro-phenyl)-(5H,11H-pyrrolo[2,1-c][1,4]benzodiazepin-10-yl)-methanone]",,69,22
"Cc1ccn(-c2ccc(C(=O)N3Cc4ccnn4Cc4ccccc43)c(C(F)(F)F)c2)n1 [Example 95, [4-(3-Methylpyrazol-1-yl)-2-trifluoromethylphenyl]-(5H,11H-pyrazolo[5,1-c]-[1,4]benzodiazepin-10-yl)-methanone]",,300,68
"Cc1ncn(-c2ccc(C(=O)N3Cc4cccn4Cc4ccccc43)c(Cl)c2)n1 [Example 102, [2-Chloro-4-(3-methyl-1,2,4-triazol-1-yl)-phenyl](5H,11H-pyrrolo[2,1-c]-[1,4]benzodiazepin-10-yl)-methanone]",191 to 193 °C,,
"Cc1ncn(-c2ccc(C(=O)N3Cc4cccn4Cc4ccccc43)c(C(F)(F)F)c2)n1 [Example 103, [4-(3-Methyl-1,2,4-triazol-1yl)-2-trifluoromethyl-phenyl](5H,11H-pyrrolo[2,1-c][1,4]benzodiazepin-10-yl)-methanone]",148 to 150 °C,,
"COc1cc(-n2ccc(C)n2)ccc1C(=O)N1Cc2cccn2Cc2ccccc21 [Example 107, [2-Methoxy-4-(3-methyl-pyrazol-1-yl)-phenyl](5H,11H-pyrrolo[2,1-c][1,4]-benzodiazepin-10-yl) Methanone]",,125,31
"COc1cc(-n2ccc(C)n2)ccc1C(=O)N1Cc2ccc(CN(C)C)n2Cc2ccccc21 [Example 108, (3-Dimethylaminomethyl-5H,11H-pyrrolo[2,1-c][1,4]benzodiazepin-10-yl)[2-methoxy-4-(3-methyl-pyrazol-1-yl)-phenyl]-methanone]",,145,30
Cc1ccn(-c2ccc(C(=O)N3Cc4cccn4Cc4ccccc43)c(O)c2)n1 [Example 109],,95,21
"Cn1cc(-c2ccc(C(=O)N3Cc4cccn4Cc4ccccc43)c(Cl)c2)cn1 [Example 115, [2-Chloro-4-(1-methyl-1H-pyrazol-4-yl)phenyl) (5H,11H-pyrrolo[2,1-c][1,4]-benzodiazepin-10-yl)-methanone]",,229,66
"Cc1ccn(-c2ccc(C(=O)N3Cc4ccnn4Cc4ccccc43)c(Cl)c2)n1 [Example 116, [2-Chloro-4-(3-methyl-pyrazol-1-yl)-phenyl]-(4H,10H-pyrazolo[5,1-c][1,4]-benzodiazepin-5-yl)-methanone]",,256,66
Cc1ccn(-c2ccc(C(=O)N3Cc4nnnn4Cc4ccccc43)c(Cl)c2)n1 [Example 117],,311,68
"Cn1ccc(-c2ccc(C(=O)N3Cc4ccnn4Cc4ccccc43)cc2)n1 [Example 120A, [4-(1-Methyl-1H-pyrazol-3-yl)phenyl](4H,10H-pyrazolo[5,1c][1,4]-benzodiazepin-5-yl)methanone]",,269,66
"Cn1nccc1-c1ccc(C(=O)N2Cc3ccnn3Cc3ccccc32)cc1 [Example 120B, [4-(2-Methyl-1H-pyrazol-3-yl)phenyl](4H,1OH-pyrazolo[5,1c][1,4]-benzodiazepin-5-yl)methanone]",,272,67
"[2-Chloro-4-(2-methyl-2H-[1,2,4]triazol-3-yl)-phenyl]-(5H,11H-pyrrolo [2,1-c][1,4]benzodiazepin-10-carbonyl)-methanone [Example 84]",,291,56
"[2-Chloro-4-(3-methyl-4-ethynyl-phenyl) (5H,11H-pyrrolo[2,1-c][1,4]-benzodiazepin-10-yl)-methanone [Example 123]",,663,88
